Test results reported in ChEMBL document CHEMBL6153135, “Rational Design of a Potent, Selective, and Metabolically Stable CDK9 Inhibitor to Counteract Osimertinib Resistance through Mcl-1 Suppression and Enhanced BRD4 Co-Targeting” (J Med Chem, 2025).
Calls of active or inactive are those of the source. The calls are words filed in the database; no cut-off is given here.

Experiments:
[1] = system: Osimertinib-resistant HCC827 cell; assay: Inhibition of stem cell multi-functionality signaling in human Osimertinib-resistant HCC827 cells by KEGG analysis; format: functional, cell-based
[2] = target: Homeodomain-interacting protein kinase 4 (Homo sapiens) (UniProt Q8NE63); assay: Inhibition of HIPK4 (unknown origin) at 100 nM preincubated for 10 mins followed by substrate/ATP measured after 60 mins by ADP-Glo assay relative to control; details: time 70.0 min
Homeodomain-interacting protein kinase 4 (Homo sapiens), sequence (Q8NE63 whole entry): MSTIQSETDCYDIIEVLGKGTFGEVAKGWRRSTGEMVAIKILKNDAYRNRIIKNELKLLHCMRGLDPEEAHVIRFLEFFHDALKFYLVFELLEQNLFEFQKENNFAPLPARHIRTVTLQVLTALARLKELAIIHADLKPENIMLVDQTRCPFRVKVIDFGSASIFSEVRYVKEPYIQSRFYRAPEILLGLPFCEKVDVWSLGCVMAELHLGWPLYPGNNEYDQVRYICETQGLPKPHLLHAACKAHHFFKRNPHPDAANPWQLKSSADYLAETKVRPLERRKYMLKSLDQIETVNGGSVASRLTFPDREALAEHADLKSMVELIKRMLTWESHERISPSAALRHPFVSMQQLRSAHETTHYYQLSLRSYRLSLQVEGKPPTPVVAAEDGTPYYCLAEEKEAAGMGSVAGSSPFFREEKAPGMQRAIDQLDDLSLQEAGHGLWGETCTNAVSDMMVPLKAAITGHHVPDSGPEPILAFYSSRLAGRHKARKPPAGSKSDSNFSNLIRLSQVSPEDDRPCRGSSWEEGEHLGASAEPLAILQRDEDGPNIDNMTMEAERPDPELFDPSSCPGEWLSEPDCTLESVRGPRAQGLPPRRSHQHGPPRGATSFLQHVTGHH

[3] = system: Osimertinib-resistant HCC827 cell; assay: Inhibition of DNA replication in human Osimertinib-resistant HCC827 cells by KEGG analysis; format: functional, cell-based
[4] = Metabolic stability in monkey liver microsomes assessed as clearance measured for 5 to 60 mins by LC-MS/MS analysis; format: ADME, Macaca mulatta, Microsome; details: rhesus monkey, time 5-60 min, read-out: CLH
[5] = Toxicity in BALB-c nude mouse xenografted with human NCI-H1975 cells assessed as body weight loss at 15 mg/kg, iv administered on every two days; format: organism-based; details: in vivo
[6] = Antitumor activity against human Osimertinib-resistant HCC827 cells xenografted in BALB-c nude mouse assessed as tumor growth inhibition at 5 mg/kg, iv in presence of JQ1 relative to control; format: functional; details: Osimertinib-resistant HCC827 cell, read-out: TGI
[7] = system: Osimertinib-resistant NCI-H1975 cell; assay: Induction of apoptosis in human Osimertinib-resistant NCI-H1975 cells assessed as necrotic cells at 0.5 uM incubated for 16 hrs by Annexin V-FITC/PI staining based flow cytometry (reference value: 1.17 %); format: functional
[8] = system: Osimertinib-resistant HCC827 cell; assay: Upregulation of c-Myc level in human Osimertinib-resistant HCC827 cells at 100 to 500 nM incubated for 12 hrs by Western blot analysis; format: functional, cell-based; details: dose 100-500 nM
[9] = target: Cyclin-dependent kinase 9 (Homo sapiens) (UniProt P50750); assay: Inhibition of CDK9 in human Osimertinib-resistant HCC827 cells assessed as decrease in Mcl-1 mRNA level by RNA-Seq analysis; format: cell-based; details: Osimertinib-resistant HCC827 cell
Cyclin-dependent kinase 9 (Homo sapiens), sequence (P50750 whole entry): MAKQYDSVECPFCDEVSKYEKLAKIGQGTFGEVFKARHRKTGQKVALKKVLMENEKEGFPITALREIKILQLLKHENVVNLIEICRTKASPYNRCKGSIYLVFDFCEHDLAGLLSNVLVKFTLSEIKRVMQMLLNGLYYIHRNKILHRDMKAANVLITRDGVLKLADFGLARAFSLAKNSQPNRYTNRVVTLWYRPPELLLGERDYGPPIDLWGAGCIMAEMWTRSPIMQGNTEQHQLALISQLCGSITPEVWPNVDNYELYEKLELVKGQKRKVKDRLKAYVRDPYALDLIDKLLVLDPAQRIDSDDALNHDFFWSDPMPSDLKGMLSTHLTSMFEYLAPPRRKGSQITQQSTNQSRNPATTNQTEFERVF

[10] = system: Osimertinib-resistant HCC827 cell; assay: Inhibition of chromosome organisation in human Osimertinib-resistant HCC827 cells by KEGG analysis; format: functional, cell-based
[11] = Metabolic stability in human liver S9 fraction assessed as half life measured for 5 to 60 mins by LC-MS/MS analysis; format: ADME, subcellular; details: time 5-60 min
[12] = system: Osimertinib-resistant HCC827 cell; assay: Upregulation of c-Myc mRNA level in human Osimertinib-resistant HCC827 cells by RNA-Seq analysis; format: functional, cell-based
[13] = Toxicity in BALB-c mouse xenografted with human NCI-H1975 cells assessed as decrease in body weight at 5 mg/kg, iv in presence of JQ1; format: organism-based; details: in vivo
[14] = Metabolic stability in dog liver microsomes assessed as clearance measured for 5 to 60 mins by LC-MS/MS analysis; format: ADME, Canis lupus familiaris, Microsome; details: time 5-60 min, read-out: CLH
[15] = system: Osimertinib-resistant NCI-H1975 cell; assay: Anti-proliferative activity against human Osimertinib-resistant NCI-H1975 cells assessed as cell inhibition measured after 72 hrs in presence of 250 nM JQ1 by MTT assay; format: functional, cell-based
[16] = C0 in BALB/c mouse at 2 mg/kg, iv; details: in vivo
[17] = Half life in BALB/c mouse at 15 mg/kg, po; format: ADME, organism-based; details: in vivo
A549 = assay: Anti-proliferative activity against human A549 cells assessed as cell inhibition measured after 72 hrs by MTT assay; format: functional, cell-based; details: A549, 72 h
[18] = Toxicity in BALB-c mouse xenografted with human Osimertinib-resistant HCC827 cells assessed as decrease in body weight at 5 mg/kg, iv; format: organism-based; details: in vivo
[19] = Metabolic stability in mouse liver microsomes assessed as half life measured for 5 to 60 mins by LC-MS/MS analysis; format: ADME, Microsome; details: time 5-60 min
[20] = system: Lung adenocarcinoma organoid; assay: Anti-tumor activity against multidrug-resistant patient (#2663)-derived human Lung adenocarcinoma organoid assessed as inhibition of cell viability measured after 96 hrs; format: functional, tissue-based; details: Neoplasm
[21] = Clearance in BALB/c mouse at 15 mg/kg, po; format: ADME, organism-based; details: in vivo
NCI-H1975 [22] = assay: Antitumor activity against human NCI-H1975 cells xenografted in BALB-c nude mouse at 15 mg/kg, iv administered on every two days relative to control; format: functional; details: NCI-H1975, 48 h, read-out: TGI
NCI-H1975 [23] = assay: Anti-proliferative activity against human NCI-H1975 cells assessed as cell inhibition measured after 72 hrs by MTT assay; format: functional, cell-based; details: NCI-H1975, 72 h
[24] = Oral bioavailability in Sprague-Dawley rat at 20 mg/kg; format: ADME, organism-based; details: in vivo
NCI-H1975 [25] = assay: Anti-proliferative activity against human NCI-H1975 cells assessed as cell inhibition measured after 72 hrs in presence of 250 nM JQ1 by MTT assay; format: functional, cell-based; details: NCI-H1975, 72 h
[26] = AUC (0 to infinity) in Sprague-Dawley rat at 2 mg/kg, iv; format: ADME, organism-based; details: in vivo
[27] = target: Homeodomain-interacting protein kinase 3 (Homo sapiens) (UniProt Q9H422); assay: Inhibition of HIPK3 (unknown origin) at 100 nM preincubated for 10 mins followed by substrate/ATP measured after 60 mins by ADP-Glo assay relative to control; details: time 70.0 min
Homeodomain-interacting protein kinase 3 (Homo sapiens), sequence (Q9H422 whole entry, looked up): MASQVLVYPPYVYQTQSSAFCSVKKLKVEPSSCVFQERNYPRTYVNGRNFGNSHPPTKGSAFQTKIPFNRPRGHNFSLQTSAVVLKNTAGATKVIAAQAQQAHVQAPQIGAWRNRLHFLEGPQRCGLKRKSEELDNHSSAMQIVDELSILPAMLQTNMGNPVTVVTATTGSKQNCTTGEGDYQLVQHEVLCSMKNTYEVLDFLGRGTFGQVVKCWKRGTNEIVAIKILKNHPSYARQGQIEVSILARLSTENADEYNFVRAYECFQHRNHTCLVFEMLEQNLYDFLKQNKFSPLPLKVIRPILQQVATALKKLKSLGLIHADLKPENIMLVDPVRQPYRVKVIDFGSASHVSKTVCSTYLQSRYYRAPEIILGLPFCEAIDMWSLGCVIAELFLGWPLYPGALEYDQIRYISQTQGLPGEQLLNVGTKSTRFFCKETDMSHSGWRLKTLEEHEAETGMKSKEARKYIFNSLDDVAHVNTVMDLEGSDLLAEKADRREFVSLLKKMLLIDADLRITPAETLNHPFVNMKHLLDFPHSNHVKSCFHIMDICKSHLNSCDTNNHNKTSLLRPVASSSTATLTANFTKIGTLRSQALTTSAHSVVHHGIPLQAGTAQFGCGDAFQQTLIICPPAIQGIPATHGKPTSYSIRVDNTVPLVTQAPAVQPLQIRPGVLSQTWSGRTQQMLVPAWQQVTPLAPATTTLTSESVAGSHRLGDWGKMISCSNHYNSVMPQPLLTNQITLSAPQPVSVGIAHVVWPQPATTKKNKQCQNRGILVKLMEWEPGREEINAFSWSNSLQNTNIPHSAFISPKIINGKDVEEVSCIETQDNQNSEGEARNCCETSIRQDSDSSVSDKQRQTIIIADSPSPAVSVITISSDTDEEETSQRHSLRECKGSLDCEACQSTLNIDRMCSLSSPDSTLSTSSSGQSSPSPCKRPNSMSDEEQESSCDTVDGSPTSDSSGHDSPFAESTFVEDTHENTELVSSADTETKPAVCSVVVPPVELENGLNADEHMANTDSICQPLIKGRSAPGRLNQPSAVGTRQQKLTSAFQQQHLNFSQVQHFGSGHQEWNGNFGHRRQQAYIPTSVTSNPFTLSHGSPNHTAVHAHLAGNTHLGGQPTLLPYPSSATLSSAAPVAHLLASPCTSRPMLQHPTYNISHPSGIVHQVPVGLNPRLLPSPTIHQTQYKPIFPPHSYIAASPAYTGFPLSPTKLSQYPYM

[28] = target: CDK2/Cyclin A2 (Homo sapiens) (UniProt P24941+P20248); assay: Inhibition of CDK2/Cyclin A2 (unknown origin) at 100 nM preincubated for 10 mins followed by substrate/ATP measured after 60 mins by ADP-Glo assay relative to control; format: protein-complex assay; details: time 70.0 min
[29] = system: Osimertinib-resistant NCI-H1975 cell; assay: Inhibition of colony formation in human Osimertinib-resistant NCI-H1975 cells at 25 nM measured after 14 days by crystal violet staining based analysis relative to control; format: functional; details: 336 h, time 14 day
[30] = system: Lung adenocarcinoma organoid; assay: Anti-tumor activity against Osimertinib-resistant patient (#0416)-derived human Lung adenocarcinoma organoid assessed as inhibition of cell viability measured after 96 hrs; format: functional, tissue-based; details: Neoplasm
[31] = system: Lung adenocarcinoma organoid; assay: Anti-tumor activity against Osimertinib-resistant patient (#0085)-derived human Lung adenocarcinoma organoid assessed as inhibition of cell viability measured after 96 hrs; format: functional, tissue-based; details: Neoplasm
[32] = Selectivity ratio of IC50 for anti-proliferative activity against human Osimertinib-resistant HCC827 cells to IC50 for anti-proliferative activity against human Osimertinib-resistant HCC827 cells in presence of JQ1; format: functional
[33] = Drug concentration in lung of BALB-c nude mouse xenografted with human NCI-H1975 cells at 15 mg/kg, iv measured after 30 mins by LC-MS/MS analysis; format: ADME, organism-based; details: read-out: Ct
[34] = C0 in Sprague-Dawley rat at 2 mg/kg, iv; details: in vivo
[35] = Toxicity in BALB-c mouse xenografted with human Osimertinib-resistant HCC827 cells assessed as decrease in body weight at 5 mg/kg, iv in presence of JQ1; format: organism-based; details: in vivo
[36] = target: Cyclin-dependent kinase 9 (Homo sapiens) (UniProt P50750); assay: Inhibition of CDK9 in human Osimertinib-resistant HCC827 cells assessed as decrease in Mcl-1 level at 100 nM incubated for 12 hrs in presence of JQ1 by Western blot analysis; format: cell-based; details: Osimertinib-resistant HCC827 cell
16HBE14o- = assay: Anti-proliferative activity against human 16-HBE cells assessed as cell inhibition measured after 72 hrs by MTT assay; format: functional, cell-based
[37] = AUC (0 to t) in BALB/c mouse at 15 mg/kg, po; format: ADME, organism-based; details: in vivo

inhibition [2]: 87.6%
microsomal CLint [4]: 23.5 µL/min/mg
inhibition [9]: Active
half-life [11]: 1.62 h
microsomal CLint [14]: 18.4 µL/min/mg
IC50 [15]: 14.6 nM
C0 [16]: 1206.2 ng/mL
half-life [17]: 3.5 h
IC50 (A549): 140 nM
half-life [19]: 1.07 h
IC50 [20]: < 50 nM
CL/F [21]: 350 mL/min/kg
IC50 (NCI-H1975 [23]): 110 nM
bioavailability [24]: 14.3%
IC50 (NCI-H1975 [25]): 29.7 nM
AUC(0-inf) [26]: 2550 ng·h/mL
inhibition [27]: 82.5%
inhibition [28]: 17.8%
IC50 [30]: < 10 nM
IC50 [31]: 44.7 nM
concentration at 0.5 h [33]: 6650 ng/mL
C0 [34]: 2527 ng/mL
inhibition [36]: Active
AUC(0-t) [37]: 754 ng·h/mL
SMILES: CC(=O)N1CCC(NC(=O)c2ccc3cc2OCCCCCCOc2cc(ccc2F)-c2nc(ncc2F)N3)CC1
inhibition [1]: Active
inhibition [3]: Active
Activity [5]: Non-toxic
inhibition in vivo at 5 mg/kg [6]: 71.5%
Activity [7]: 1.46%
Activity [8]: Active
inhibition [10]: Active
Activity [12]: Active
Activity [13]: Non-toxic
Activity [18]: Non-toxic
inhibition in vivo at 15 mg/kg (NCI-H1975 [22]): 65.8%
inhibition at 0.025 µM [29]: 100%
Ratio IC50 [32]: 10
Activity [35]: Non-toxic
IC50 (16HBE14o-): 480 nM
